From patent publication US8329914B2, “Cyclic benzimidazole derivatives useful as anti-diabetic agents” (Merck Sharp & Dohme Corp, priority 2008, dated 2012)

What was measured:
[1] = target: recombinant human AMPK complex 1 (containing α1β1γ1) (Homo sapiens, UniProt Q13131+Q9Y478); assay: AMPKSAMSF (in vitro AMPK activation assay); format: biochemical; settings: recombinant human AMPK complex 1 (α1β1γ1); for Emax: basal activity subtracted, read-out: % Maximum AMP Activation of human AMPK Complex 1
Sequence of recombinant human AMPK complex 1 (containing α1β1γ1) (Q13131 whole entry): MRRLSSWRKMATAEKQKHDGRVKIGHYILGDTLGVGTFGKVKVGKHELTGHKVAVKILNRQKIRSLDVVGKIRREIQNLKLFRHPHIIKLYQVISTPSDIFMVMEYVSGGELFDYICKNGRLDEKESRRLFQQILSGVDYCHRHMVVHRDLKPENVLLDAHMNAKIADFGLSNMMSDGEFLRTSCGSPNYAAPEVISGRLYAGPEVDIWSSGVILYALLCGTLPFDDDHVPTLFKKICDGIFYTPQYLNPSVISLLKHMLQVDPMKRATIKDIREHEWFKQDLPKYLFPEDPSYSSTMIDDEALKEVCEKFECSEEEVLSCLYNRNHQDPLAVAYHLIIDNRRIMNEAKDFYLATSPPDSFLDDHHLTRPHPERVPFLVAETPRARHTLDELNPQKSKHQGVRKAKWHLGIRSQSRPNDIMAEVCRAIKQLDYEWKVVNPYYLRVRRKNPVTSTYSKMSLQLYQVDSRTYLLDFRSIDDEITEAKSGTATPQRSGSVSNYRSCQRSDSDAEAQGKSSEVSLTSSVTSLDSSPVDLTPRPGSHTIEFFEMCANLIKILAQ
Sequence of recombinant human AMPK complex 1 (containing α1β1γ1) (Q9Y478 whole entry): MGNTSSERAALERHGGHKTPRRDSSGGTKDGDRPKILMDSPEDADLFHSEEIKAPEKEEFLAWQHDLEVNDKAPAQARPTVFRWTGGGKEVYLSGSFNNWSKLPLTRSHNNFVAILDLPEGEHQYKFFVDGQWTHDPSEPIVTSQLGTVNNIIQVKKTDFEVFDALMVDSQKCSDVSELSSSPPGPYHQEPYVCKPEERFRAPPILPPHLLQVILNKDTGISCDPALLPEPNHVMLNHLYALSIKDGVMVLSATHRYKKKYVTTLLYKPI
Sequence of recombinant human AMPK complex 1 (containing α1β1γ1) (P54619 whole entry partner): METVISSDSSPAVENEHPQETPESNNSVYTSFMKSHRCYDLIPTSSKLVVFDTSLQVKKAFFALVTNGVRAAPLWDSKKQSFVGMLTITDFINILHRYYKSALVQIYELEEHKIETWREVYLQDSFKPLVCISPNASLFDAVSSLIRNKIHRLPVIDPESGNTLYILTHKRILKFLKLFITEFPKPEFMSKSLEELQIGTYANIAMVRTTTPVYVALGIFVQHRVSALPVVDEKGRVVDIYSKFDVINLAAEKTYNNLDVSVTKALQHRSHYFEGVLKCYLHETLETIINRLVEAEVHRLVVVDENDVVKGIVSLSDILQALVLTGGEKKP
Experimental: The recombinant human AMPK complex 1 (containing α1β1γ1) was obtained from baculovirus expression system. Recombinant viruses were generated by cotransfection of AMPK/pBacPak9 clones with Baculogold baculovirus DNA (Pharmingen) in spodoptera frugiperda 21 cells according to the manufacturer's instructions. Each round of virus amplification was performed for 5 days in Grace's medium containing 10% serum. Virus that had been subjected to three rounds of amplification was used for all protein production procedures. To express the AMPK complex, sf21 cells were adapted to serum free medium (SF900 II, Invitrogen) by sequential dilution from serum containing stocks into SF900II medium and maintained in shaker flasks at 90 rpm at 27° C. The recombinant AMPK enzyme complex was produced by triple infection, one recombinant virus for each of the subunits, in sf21 cells under serum free conditions. Cells were infected in log phase, 1×10^6 cells/ml, at a multiplicity of infection of ˜5. Cells were harvested by centrifugation at 10,000×g for 15 minutes after 72 hours of infection with viruses. The insect cell pellet from 2 liters of culture was resuspended in 50 ml lysis buffer (20 mM Tris-HCl, 50 mM NaCl, 50 mM NaF, 30 mM Na PPi, 0.25 M sucrose, 10 mM ZnCl2, 2 mM DTT, 0.4 mg/ml digitonin) and subjected to two cycles of freeze-thaw lysis in a dry-ice ethanol bath. Insoluble material was removed by centrifugation at 10,000×g and the supernatant was fractionated with use of polyethylene glycol (PEG). The protein fraction precipitating between 2.5 and 6% PEG was used for further purification using a Blue-Sepharose step (Zhou et al, J. Clin Invest. 108, 1167-1174, 2001).
The total in vitro AMPK activation assay volume is 50 μl in a 96-well plate. The reaction mixture contained 100 μM ATP (0.5 μCi ^33P-ATP per reaction), and 50 μM SAMS (HMRSAMSGLHLVKRR) in a buffer (20 mM HEPES, pH 7.0, 5 mM MgCl2, 0.01% Brij35). The reaction was initiated with addition of the enzyme. After 30-minute incubation at 30° C., the reaction was stopped by addition of 80 μl 1% H3PO4. Aliquots (100 μl) were transferred to 96-well MultiScreen plates (MAPHNOB50; Millipore Corp., Bedford, Mass., USA). The plate was washed three times with 1% H3PO4 followed by detection in a Top-count. The counts per minute from the basal activity (the reaction without activator) was subtracted from each well and the data were expressed as % maximum AMP activation followed by EC50 calculation.

ob/ob and db/db mice = settings: following 8 weeks of administration; cited from earlier work

Structure (SMILES) | Emax [1] | also measured
O=[P@]1(CSc2nc3cc(-c4ccc(-c5ccccc5)cc4)c(Cl)cc3[nH]2)OCC[C@@H](c2ccncc2)O1 [Example 34, 5-Biphenyl-4-yl-6-chloro-2-(cis{5[1-yl-(4-pyridyl)]}-1-phosphono-2,6-dioxophosphinan-2-ylmethylsulfanyl)-1H-benzoimidazole] | > 60% | 
CSc1ccc(-c2cc3nc(SCP(=O)(O)O)[nH]c3cc2Cl)cc1 [Example 17, [6-Chloro-5-(4-methylsulfanyl-phenyl)-1H-benzoimidazol-2-ylsulfanylmethyl]-phosphonic acid] | > 60% | 
O=P(O)(O)CSc1nc2cc(C#Cc3ccc(F)cc3F)c(Cl)cc2[nH]1 [Example 8] |  | EC50 [1]: 184 nM
O=P(O)(O)CSc1nc2cc(C#Cc3ccccc3F)c(Cl)cc2[nH]1 [Example 6] | > 60% | 
O=P(O)(O)CSc1nc2cc(C#Cc3cccc(F)c3)c(Cl)cc2[nH]1 [Example 4] | > 60% | 
CCC(=O)SCCOP(=O)(O)CSc1nc2cc(-c3ccc(-c4ccccc4)cc3)c(Cl)cc2[nH]1 [Example 32, Thiopropionic acid S-{2-[(5-biphenyl-4-yl-6-chloro-1H-benzoimidazol-2-ylsulfanylmethyl)-hydroxy-phosphinoyloxy]-ethyl}ester] | > 60% | 
O=P(O)(O)CCc1nc2cc(-c3ccc(-c4ccccc4)cc3)c(Cl)cc2[nH]1 [Example 26, [2-(Biphenyl-4-yl-6-chloro-1H-benzoimidazol-2-yl)-ethyl]-phosphonic acid] | > 60% | 
O=P(O)(O)CSc1nc2cc(-c3ccc(Cl)c(Cl)c3)c(Cl)cc2[nH]1 [Example 16, [6-Chloro-5-(3,4-dichloro-phenyl)-1H-benzoimidazol-2-ylsulfanylmethyl]-phosphonic acid] | > 60% | 
O=P(O)(O)CCCc1nc2cc(-c3ccc(-c4ccccc4)cc3)c(Cl)cc2[nH]1 [Example 25, [3-(5-Biphenyl-4-yl-6-chloro-1H-benzoimidazol-2-yl)-propyl]-phosphonic acid] | > 60% | 
CCOP(=O)(CSc1nc2cc(-c3ccc(Br)cc3)c(Cl)cc2[nH]1)OCC [Example 13] | > 60% | 
NC(=O)c1ncn([C@@H]2O[C@H](CO)[C@@H](O)[C@H]2O)c1N [AICAR] |  | blood glucose reduction (ob/ob and db/db mice): 35%
O=P(O)(O)CSc1nc2cc(C#Cc3ccc(C(F)(F)F)cc3)c(Cl)cc2[nH]1 [Example 3] | > 60% | 
COc1ccc(COP(=O)(O)CSc2nc3cc(-c4ccc(-c5ccccc5)cc4)c(Cl)cc3[nH]2)cc1F [Example 31, (5-Biphenyl-4-yl-6-chloro-1H-benzoimidazol-2-ylsulfanylmethyl)-phosphonic acid mono-(3-fluoro-4-methoxy-benzyl)ester] | > 60% | 
COc1ccc(-c2ccc(-c3cc4nc(SCP(=O)(O)O)[nH]c4cc3Cl)cc2)cn1 [Example 21, (5-chloro-6-(4-(6-methoxypyridin-3-yl)phenyl)-1H-benzo[d]imidazol-2-ylthio)methylphosphonic acid] | > 60% | 
O=P(O)(O)CSc1nc2cc(-c3ccc(-c4cccnc4)cc3)c(Cl)cc2[nH]1 [Example 22, (5-chloro-6-(4-(pyridin-3-yl)phenyl)-1H-benzo[d]imidazol-2-ylthio)methyl-phosphonic acid] |  | EC50 [1]: 82 nM
O=P(O)(O)CSc1nc2cc(-c3ccc(Cl)c(F)c3)c(Cl)cc2[nH]1 [Example 15, [6-Chloro-5-(4-chloro-3-fluoro-phenyl)-1H-benzoimidazol-2-ylsulfanylmethyl]phosphonic acid] | > 60% | 
O=P(O)(O)CSc1nc2cc(C#Cc3ccc(CO)cc3)c(Cl)cc2[nH]1 [Example 7] | > 60% | 
CC(C)(C)C(=O)OCOP(=O)(CSc1nc2cc(-c3ccc(-c4ccccc4)cc3)c(Cl)cc2n1COC(=O)C(C)(C)C)OCOC(=O)C(C)(C)C [Example 36, 2,2-Dimethyl-propionic acid[5-biphenyl-4-yl-6-chloro-1-(2,2-dimethylpropionyl-oxymethyl)-1H-benzoimidazol-2-ylsulfanylmethyl]-(2,2-dimethyl-propionyl-oxymethoxy)-phosohinoyloxymethyl ester] | > 60% | melting point: 210 to 215 °C

Structure (SMILES) | Emax [1] | also measured
O=P(O)(O)CSc1nc2cc(C#Cc3ccccn3)c(Cl)cc2[nH]1 [Example 5] | > 60% | 
O=P(O)(O)CSc1nc2cc(Cl)c(C#Cc3ccccc3)cc2[nH]1 [Example 1, (5-Chloro-6-phenylethynyl-1H-benzoimidazol-2-ylsulfanylmethyl)-phosphonic acid] | > 60% | melting point: 210 to 215 °C
O=P(O)(O)CSc1nc2cc(-c3ccc(-c4ccccc4)cc3)c(Cl)cc2[nH]1 [Example 29] |  | EC50 [1]: 137 nM
O=P1(CSc2nc3cc(-c4ccc(-c5ccccc5)cc4)c(Cl)cc3[nH]2)OCCC(c2cccc(Cl)c2)O1 (centres unmarked) [Example 30, 5-Biphenyl-4-yl-6-chloro-2-[4-(3-chloro-phenyl)-2-oxo-2lambda*5*-[1,3,2]-dioxaphosphinan-2-ylmethylsulfanyl]-1H-benzoimidazole] | > 60% | 
O=P(O)(O)CSc1nc2cc(-c3ccc4[nH]ccc4c3)c(Cl)cc2[nH]1 [Example 27] |  | EC50 [1]: 233 nM
O=P(O)(O)CSc1nc2cc(C#Cc3ccc(Cl)cc3)c(Cl)cc2[nH]1 [Example 11] | > 60% | 
O=[P@@]1(CSc2nc3cc(-c4ccc(-c5ccccc5)cc4)c(Cl)cc3[nH]2)OCC[C@@H](c2ccncc2)O1 [Example 35, 5-Biphenyl-4-yl-6-chloro-2-(trans{5[1-yl-(4-pyridyl)]}-1-phosphono-2,6-dioxophosphinan-2-ylmethylsulfanyl)-1H-benzoimidazole] | > 60% | 
CC(C)Oc1ccc(-c2ccc(-c3cc4nc(SCP(=O)(O)O)[nH]c4cc3Cl)cc2)cc1 [Example 23, (5-chloro-6-(4′-isopropoxy-biphenyl-4-yl)-1H-benzo[d]imidazol-2-ylthio)methylphosphonic acid] | > 60% | 
CN(C)C(=O)c1ccc(-c2cc3nc(SCP(=O)(O)O)[nH]c3cc2Cl)cc1 [Example 14, [6-Chloro-5-(4-dimethylcarbamoyl-phenyl)-1H-benzoimidazol-2-ylsulfanylmethyl]-phosphonic acid] | > 60% | 
O=P(O)(O)CSc1nc2cc(-c3ccc(N4CCOCC4)cc3)c(Cl)cc2[nH]1 [Example 20, (5-chloro-6-(4-morpholinophenyl)-1H-benzo[d]imidazol-2-ylthio)methylphosphonic acid] | > 60% | 
CCC(=O)SCCOP(=O)(CSc1nc2cc(-c3ccc(-c4ccccc4)cc3)c(Cl)cc2[nH]1)OCCSC(=O)CC [Example 33, Thiopropionic acid S-{2-[(5-biphenyl-4-yl-6-chloro-1H-benzoimidazol-2-ylsulfanylmethyl)-(2-propionylsulfanyl-ethoxy)-phosphinoyloxy]-ethyl}ester] | > 60% | 
Cc1cc(-c2cc3nc(SCP(=O)(O)O)[nH]c3cc2Cl)ccc1Cl [Example 12, [6-Chloro-5-(4-chloro-3-methyl-phenyl)-1H-benzoimidazol-2ylsulfanylmethyl]-phosphonic acid] | > 60% | 
O=P(O)(O)CSc1nc2cc(C#Cc3cccnc3)c(Cl)cc2[nH]1 [Example 10] | > 60% | 
O=P(O)(O)CSc1nc2cc(C#Cc3ccc(F)cc3)c(Cl)cc2[nH]1 [Example 2] | > 60% | 
O=P(O)(O)CSc1nc2cc(C#Cc3ccccc3O)c(Cl)cc2[nH]1 [Example 9] | > 60% | 
O=C(NC1CC1)c1cc(-c2cc3nc(SCP(=O)(O)O)[nH]c3cc2Cl)ccc1Cl [Example 18, [6-Chloro-5-(4-chloro-3-cyclopropylcarbamoyl-phenyl)-1H-benzoimidazol-2-ylsulfanylmethyl]-phosohonic acid] | > 60% | 
Cc1cncc(-c2ccc(-c3cc4nc(SCP(=O)(O)O)[nH]c4cc3Cl)cc2)c1 [Example 24, (5-chloro-6-[4-(5-methyl-pyridin-3-yl)-phenyl]-1H-benzo[d]imidazol-2-ylthio)methylphosphonic acid] | > 60% | 
Cn1ccc2cc(-c3cc4nc(SCP(=O)(O)O)[nH]c4cc3Cl)ccc21 [Example 28] |  | EC50 [1]: 58 nM
